# Experiment: Pharmacokinetics, RRx-001-GSH in plasma as surrogate for drug exposure
# Assay type: in vivo
# Protocol: RRx-001 reacted nonenzymatically and covalently with reduced glutathione (GSH), and with the β93Cys residue of hemoglobin, forming RRx-001-GSH and RRx-001-hemoglobin metabolites, respectively. Given the rapid conversion of the RRx-001 parent molecule to GSH and hemoglobin conjugates, RRx-001-GSH, being the predominant measurable metabolite in the plasma, was chosen as a surrogate for drug exposure. Terminal half-life of RRx-001-GSH was calculated as approximately 30 minutes.
smiles,measurement,setting,value
NC(CCC(=O)NC(CSCC(=O)N1CC([N+](=O)[O-])([N+](=O)[O-])C1)C(=O)NCC(=O)O)C(=O)O (centres unmarked) [RRx-001-GSH],"area under the plasma concentration-time curve and maximum plasma concentration, dose proportionality",doses up to 55 mg/m^2 in phase 1,mostly dosed proportional
same,Terminal half-life of RRx-001-GSH,plasma,approximately 30 minutes
